Data: patent US20130150399A1, “INHIBITORS OF THE UNFOLDED PROTEIN RESPONSE AND METHODS FOR THEIR USE” (The Board of Trustees of the Leland Stanford Junior …, priority 2006, published 2013)
Values joined by “and” are separate entries in the source; they are usually repeats but may differ in a detail not shown here. Equal entries are not always repeated.

How the values were obtained:
[1] = system: PANC1 pancreatic adenocarcinoma cells; assay: PANC1 tumor growth in vivo; set-up: species or system nude mice; details: 60 mg/kg ip bolus every 48 hours, 5 doses
Description: Dose: 60 mg/kg ip bolus injection every 48 hours. 5 total doses. 5-7 tumors per group. PANC1 pancreatic adenocarcinoma cell line.
PANC1 pancreatic adenocarcinoma cells were implanted subcutaneously into nude mice. Mice were then given a bolus injection of one of the inventive irestatins (1401, 9337, 3611 or 9389) at a dose of 60 mg/kg every 48 hours for a total of 5 doses, with 5-7 tumors being treated per group.

XBP1-luciferase reporter = assay: XBP-luciferase reporter high throughput screen / IRE IC50 (tunicamycin + thapsigargin induced); type: cell-based, human
Description: Specifically, HT1080 fibrosarcoma cells stably transfected with the unspliced XBP-1-luciferase reporter construct (3000/well) were plated onto a solid white 384 well microplate with a multidrop dispenser (40 μL per well). The plates were then placed into an automated incubator. After 24 hours of growth, a mixture of tunicamycin (1 μg/ml) and thapsigargin (100 nM) inducers were added, and candidate compounds were then added to the plates. After 24 hours, luciferase reagent (10 μl) was added to each well and the plates were read in a Molecular Devices Analyst GT (0.2 second read per well).
As described above in Example 2, HT1080 fibrosarcoma cells stably expressing the XBP-luciferase reporter were plated in a 384 well microplate (4000 cells/well). After 24 hours, cells were treated with a mixture of tunicamycin (4 μg/ml) and thapsigargin (0.4 μM), followed by the addition of one compound per well (10 μM). We screened a total of 66,000 diverse molecules obtained from Specs, Chembridge and ChemRX. Twenty-four hours post-induction, BriteGlo luciferase substrate (10 μl) was added to each well and the signal intensity determined in a plate reader (0.2 s read per well). […] We retested 431 compounds from the initial screen, and selected 58 compounds for additional analysis, including calculation of IC50 values and inhibition of a CMV-luciferase reporter.
Compounds of the screening library with structural similarity to compound 9389 (see Table 1) have been identified and in some cases further assayed for inhibitory activity. Compounds listed with “IC50” values were assayed secondarily after initially being identified in the high throughput screen. Each value represents a separate calculation of reporter inhibition based upon the high throughput robotic screening platform. The actual IC50 values are calculated and represent an estimate of the potency of each compound. This assay is not considered to be accurate below a concentration of 10 nM. Compounds classified with “mild” activity inhibited the XBP1-luciferase reporter by 10-30%. Compounds classified with “moderate” activity inhibited the XBP1-luciferase reporter by 30-75%. Compounds classified with “potent” activity inhibited the XBP1-luciferase reporter by 75-100%. Compounds classified with “undetected” activity inhibited the XBP1-luciferase reporter by less than 10% under the defined conditions.

XBP-1 splicing = assay: Bioluminescence imaging of XBP-1 splicing in HT1080 XBP-1s-luciferase tumors; type: in vivo; details: for toxicity: nude mice
Description: Several nude mice were implanted with HT1080 cells stably expressing a XBP-1s-luciferase construct and XBP-1 activation was examined using bioluminescence imaging. Imaging was performed using the In Vivo Imaging System (IVIS, Xenogen Corporation, Alameda, Calif.) in the Stanford Center for Innovation in In Vivo Imaging (SCI3). This device consists of a cooled CCD camera mounted on a light-tight specimen chamber.

XBP-luciferase reporter = XBP-luciferase reporter assay under Tm or hypoxia, HT1080 cells; type: cell-based, human; details: Tm alone, 24 hours
Description: (§1) HT1080 cells stably expressing the XBP-luciferase construct were grown in 60 mm dishes to 60-70% confluency. Following hypoxia treatment, cells were washed twice with PBS, lysed in 400 μl 1× reporter lysis buffer (RLB) (Promega, Madison Wis.) for 30 min at 24° C. Lysates (100 μl) were mixed with an equal volume of luciferase substrate (Promega), and assayed using a luminometer. For 5×-UPRE-luciferase reporter assays, cells were co-transfected with the appropriate reporter plasmid and a control plasmid (pSV40-beta-gal) using Lipofectamine 2000 (Invitrogen, San Diego, Calif.). Twenty-four hours after transfection, fresh media was added, and cells were treated with Tm or shifted to hypoxia. After treatment, cells were lysed in 1×RLB and analyzed for luciferase activity as described above. Beta-galactosidase activity was determined using the beta-galactosidase enzyme assay system (Promega).
A. XBP-luciferase reporter construct. Firefly luciferase was inserted downstream of the IRE1α splice site in human XBP-1 to enable the conditional translation of luciferase under ER stress in an IRE1α-dependent manner. B. Selective inhibition of the XBP-luciferase reporter by irestatin 9389. HT1080 human fibrosarcoma cells stably expressing the XBP-luciferase reporter or CMV-luciferase were cultured in the presence of Tm (4 μg/ml) and Tg (0.4 μM) and irestatin 9389 at the indicated concentrations. After 24 hours, luciferase activity was analyzed in an automated plate reader. For each cell line, values are expressed as the percent inhibition of the median for Tm/Tg-treated wells, corrected for background. C. Structure of irestatin 9389. D. XBP-luciferase reporter assay. HT1080 cells stably expressing the XBP-luciferase reporter were exposed to Tm (4 μg/ml) for 24 hours or hypoxia (0.1% oxygen) for 24 or 48 hours, in the presence of DMSO or irestatin 9389 (1 μM) as indicated. Values are expressed as the fold increases over uninduced levels. E. 5×-UPRE reporter assay. HT1080 cells were co-transfected with 5×-UPRE luciferase and SV40-beta-gal reporter plasmids, followed by exposure to Tm or hypoxia as in D. For each condition, luciferase activity is normalized to beta-galactosidase expression levels as an internal control for transfection efficiency. F. Western immunoblot analysis of XBP-1s. HT1080 cells were left untreated (lane 2) or exposed to Tm (4 μg/ml) for 20 hours in the presence of DMSO vehicle (lane 1) or the indicated irestatins (2 μM; lanes 3-6). […] Cells were harvested, lysed, and analyzed by immunoblotting with antisera specific for HIF-1α (top), XBP-1s (middle) or actin (bottom). […] Total RNA was analyzed by Northern blotting using radiolabeled probes specific for P58^IPK or DER-1. […]

Grp78 = assay: Western immunoblot of Grp78, HT1080 cells; type: cell-based, human; details: Tm (5 μg/ml) for 8 hours, positive control
Description: Cells (2×10^6) were cultured in 10-cm dishes, collected using a cell scraper at 4° C., and lysed by addition of 150 μl cell lysis buffer [50 mM Tris pH 7.4, 150 mM NaCl, 10% glycerol, 0.5% Triton X-100. 0.5% NP-40, 2 mM Na3VO4, 20 mM beta-glycerophosphate, 10 mM NaF, 1 mM DTT, 1 mM PMSF). Lysates were centrifuged for 5 min at 10,000×g, and proteins (˜40 μg) were resolved by SDS-PAGE followed by semi-dry transfer to nitrocellulose membranes. Membranes were blocked in TBS-5% milk supplemented with 0.1% Tween-20. The blots were then probed overnight with relevant antibodies, washed, and incubated for 2 hours with species-specific secondary antibodies conjugated to horseradish peroxidase. After washing in block solution, immunoreactive material was detected by enhanced chemiluminescence (SuperSignal West Dura Extended, Pierce, Inc., Rockville, Ill.).
HT1080 cells were exposed to DMSO vehicle (lane 1), irestatin 9389 (2.5 μM; lane 2) for 16 hours or Tm (5 μg/ml; lane 3) for 8 hours. Following treatments, cells were harvested, lysed, and analyzed by immunoblotting using anti-Grp78 antibody (top) or anti-actin (bottom) as a loading control. […] Cell lysates were analyzed by Western immunoblotting using anti-IRE1α (bottom) or anti-phospho-IRE1α antibodies (top). […] Lysates were analyzed by Western blot using antisera specific for phospho-JNK1 (top) or total JNK1 (bottom). […]

[2] = system: 5×-UPRE luciferase reporter (XBP-1s); assay: 5×-UPRE luciferase reporter assay, HT1080 cells; type: cell-based, human; details: Tm alone
Description: as §1
A. XBP-luciferase reporter construct. Firefly luciferase was inserted downstream of the IRE1α splice site in human XBP-1 to enable the conditional translation of luciferase under ER stress in an IRE1α-dependent manner. B. Selective inhibition of the XBP-luciferase reporter by irestatin 9389. HT1080 human fibrosarcoma cells stably expressing the XBP-luciferase reporter or CMV-luciferase were cultured in the presence of Tm (4 μg/ml) and Tg (0.4 μM) and irestatin 9389 at the indicated concentrations. After 24 hours, luciferase activity was analyzed in an automated plate reader. For each cell line, values are expressed as the percent inhibition of the median for Tm/Tg-treated wells, corrected for background. C. Structure of irestatin 9389. […] Values are expressed as the fold increases over uninduced levels. […] Cells were harvested, lysed, and analyzed by immunoblotting with antisera specific for HIF-1α (top), XBP-1s (middle) or actin (bottom). […] Total RNA was analyzed by Northern blotting using radiolabeled probes specific for P58^IPK or DER-1. […]
Since these assays employed a chimeric XBP-luciferase substrate, we next determined whether irestatin 9389 could inhibit the function of endogenous XBP-1s. […]

`CN1CCN(c2ccc3sc4ccccc4c(=O)c3c2)CC1` [Compound 1401] was tested. Which tumor growth [1] did it give?
Its tumor growth is “significant tumor growth was observed in untreated mice, but not in mice treated with the irestatins”.

Which “% Inh” value (XBP1-luciferase reporter; Assay HTS, Conc 10 uM) does the source give for `Cc1cccc(NC(=O)c2sc3nc(C)cc(C(F)(F)F)c3c2N)n1` [Compound 2750] here?
Its value is 16.6%.

Which results are given for `Nc1ccc(-c2ccc(-c3ccc(N)cc3)c(N)c2)cc1` [Compound 3281]?
toxicity (XBP-1 splicing; 50 mg/kg IP): no apparent toxicity; XBP-1 splicing activity (bioluminescence) (XBP-1 splicing; 50 mg/kg IP, 8 hrs after injection): undetectable; XBP-1 splicing (bioluminescence) (XBP-1 splicing; 8 hrs after a second injection): again inhibited

With `Cc1cc2nc(NC(=O)CCCC(=O)O)sc2cc1C` [Compound 3611] as the compound, how does the tumor growth [1] read?
The tumor growth was “significant tumor growth was observed in untreated mice, but not in mice treated with the irestatins”.

For `Cc1csc(NC(=O)c2sc3nc4c(c(C(F)(F)F)c3c2N)CCCC4)n1` [Compound 4335], which “% Inh” value (XBP1-luciferase reporter; Assay IRE IC50, Conc 20 uM) is on record?
Its value is 70.4%.

Which results are given for `Cc1csc(NC(=O)c2sc3nc4c(c(C(F)(F)F)c3c2N)CCC4)n1` [Compound 5500]?
toxicity (XBP-1 splicing; 50 mg/kg IP): no apparent toxicity; effect on XBP-1 splicing (bioluminescence) (XBP-1 splicing; 50 mg/kg IP, at the time points assayed): did not have any affect on XBP-1 splicing; % Inh (XBP1-luciferase reporter; Assay IRE IC50, Conc 20 uM): 104.4%

`N#Cc1cccc(NC(=O)c2sc3nc4c(c(C(F)(F)F)c3c2N)CCC4)c1` [Compound 8878] was tested. Which “% Inh” value (XBP1-luciferase reporter; Assay IRE IC50, Conc 20 uM) did it give?
Its value is 72.4% and 50.0%.

How did the tumor growth [1] turn out when `Cc1cn2cc(-c3ccc4ccccc4c3)nc2s1` [Compound 9337] was run?
The tumor growth was “significant tumor growth was observed in untreated mice, but not in mice treated with the irestatins”.

Which results are given for tunicamycin [Tm, reference compound]?
increase of XBP-luciferase activity (XBP-luciferase reporter): 60 fold; Grp78 levels (Grp78): robustly induced Grp78; increase of 5×-UPRE luciferase activity over untreated cells [2]: ~12 fold
